Reference: ChEMBL document CHEMBL1137374, “Discovery of 6-N,N-bis(2,2,2-trifluoroethyl)amino- 4-trifluoromethylquinolin-2(1H)-one as a novel selective androgen receptor modulator” (J Med Chem, 2006)
Calls of active or inactive are those of the source. No cut-off for these calls is given here.

What was measured:
[1] = biological target: T1, Androgen receptor (Homo sapiens, UniProt P10275)
T1 sequence (P10275 whole entry): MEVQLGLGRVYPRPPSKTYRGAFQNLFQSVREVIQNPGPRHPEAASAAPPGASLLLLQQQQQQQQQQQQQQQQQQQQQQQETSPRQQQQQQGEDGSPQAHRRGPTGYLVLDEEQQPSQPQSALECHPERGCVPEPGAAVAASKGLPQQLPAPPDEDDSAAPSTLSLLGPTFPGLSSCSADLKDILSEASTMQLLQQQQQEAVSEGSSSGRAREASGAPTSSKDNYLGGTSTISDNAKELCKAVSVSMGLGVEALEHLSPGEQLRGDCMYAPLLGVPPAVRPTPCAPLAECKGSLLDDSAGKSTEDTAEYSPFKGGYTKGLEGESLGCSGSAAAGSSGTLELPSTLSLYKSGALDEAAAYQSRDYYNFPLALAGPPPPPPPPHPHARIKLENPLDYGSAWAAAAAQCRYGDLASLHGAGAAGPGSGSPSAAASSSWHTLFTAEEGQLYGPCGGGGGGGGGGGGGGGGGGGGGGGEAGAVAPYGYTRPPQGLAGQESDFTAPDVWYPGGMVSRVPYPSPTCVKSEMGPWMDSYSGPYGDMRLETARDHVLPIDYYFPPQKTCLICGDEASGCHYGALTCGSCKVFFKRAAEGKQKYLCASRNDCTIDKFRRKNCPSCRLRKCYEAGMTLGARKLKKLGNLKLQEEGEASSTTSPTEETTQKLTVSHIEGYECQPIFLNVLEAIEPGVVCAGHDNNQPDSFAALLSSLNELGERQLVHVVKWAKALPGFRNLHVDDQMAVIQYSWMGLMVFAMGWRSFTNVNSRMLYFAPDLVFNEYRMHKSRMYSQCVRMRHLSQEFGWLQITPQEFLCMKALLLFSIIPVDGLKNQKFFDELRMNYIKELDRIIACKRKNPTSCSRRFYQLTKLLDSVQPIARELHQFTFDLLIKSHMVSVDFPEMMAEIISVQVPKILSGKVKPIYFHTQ
Description: Displacement of [3H]DHT from human androgen receptor expressed in MDA-MB-453 cells by whole cell receptor binding assay

[2] = biological target: T1, Androgen receptor; remark: listed apart in the source
Description: Agonist activity at human androgen receptor in CV1 cells measured as stimulation of luciferase reporter gene activity by cotransfection assay

[3] = biological target: T1, Androgen receptor; remark: listed apart in the source
Description: Antagonist activity against human androgen receptor in CV1 cells measured as inhibition of DHT-stimulated luciferase reporter gene activity by cotransfection assay

[4] = species on record: Rattus norvegicus; assay: Anabolic activity in orchidectomized rat measured as increase in levator ani muscle weight relative to intact rat; type: functional
[5] = system: Rattus norvegicus; assay: Anabolic activity in orchidectomized rat at 3.0 mg/kg, po measured as increase in levator ani muscle weight to eugonadal level; type: functional, organism-based; design: dose 3 mg/kg
[6] = system: Rattus norvegicus; assay: Androgenic activity in orchidectomized rat at 100 mg/kg, po measured as increase in ventral prostate weight to intact level; type: functional, organism-based; design: dose 100 mg/kg; conditions: Prostate gland
[7] = biological target: T2, Glucocorticoid receptor (Homo sapiens, UniProt P04150); assay: Binding affinity to glucocorticoid receptor
T2 sequence (P04150 whole entry): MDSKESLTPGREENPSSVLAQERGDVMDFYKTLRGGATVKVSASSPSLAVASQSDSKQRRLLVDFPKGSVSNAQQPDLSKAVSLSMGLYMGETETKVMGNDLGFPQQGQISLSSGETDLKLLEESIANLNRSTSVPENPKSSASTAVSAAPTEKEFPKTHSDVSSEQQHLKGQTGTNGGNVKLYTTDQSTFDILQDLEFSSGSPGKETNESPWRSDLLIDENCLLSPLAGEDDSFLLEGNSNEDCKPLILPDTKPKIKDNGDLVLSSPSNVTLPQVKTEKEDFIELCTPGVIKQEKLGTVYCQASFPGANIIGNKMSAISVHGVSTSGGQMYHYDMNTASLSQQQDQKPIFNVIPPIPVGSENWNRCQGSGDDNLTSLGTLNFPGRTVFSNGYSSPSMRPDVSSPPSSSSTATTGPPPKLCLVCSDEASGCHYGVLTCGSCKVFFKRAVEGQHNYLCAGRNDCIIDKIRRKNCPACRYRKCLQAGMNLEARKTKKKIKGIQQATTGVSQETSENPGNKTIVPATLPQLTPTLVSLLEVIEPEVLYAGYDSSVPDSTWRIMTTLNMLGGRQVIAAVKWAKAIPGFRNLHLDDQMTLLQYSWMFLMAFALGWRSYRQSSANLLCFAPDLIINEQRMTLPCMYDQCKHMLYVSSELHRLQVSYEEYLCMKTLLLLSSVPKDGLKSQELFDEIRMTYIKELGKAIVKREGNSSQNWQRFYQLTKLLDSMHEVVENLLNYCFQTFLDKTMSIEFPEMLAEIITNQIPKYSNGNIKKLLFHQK

[8] = biological target: T3, Mineralocorticoid receptor (Homo sapiens, UniProt P08235); assay: Binding affinity to mineralocorticoid receptor
T3 sequence (P08235 whole entry): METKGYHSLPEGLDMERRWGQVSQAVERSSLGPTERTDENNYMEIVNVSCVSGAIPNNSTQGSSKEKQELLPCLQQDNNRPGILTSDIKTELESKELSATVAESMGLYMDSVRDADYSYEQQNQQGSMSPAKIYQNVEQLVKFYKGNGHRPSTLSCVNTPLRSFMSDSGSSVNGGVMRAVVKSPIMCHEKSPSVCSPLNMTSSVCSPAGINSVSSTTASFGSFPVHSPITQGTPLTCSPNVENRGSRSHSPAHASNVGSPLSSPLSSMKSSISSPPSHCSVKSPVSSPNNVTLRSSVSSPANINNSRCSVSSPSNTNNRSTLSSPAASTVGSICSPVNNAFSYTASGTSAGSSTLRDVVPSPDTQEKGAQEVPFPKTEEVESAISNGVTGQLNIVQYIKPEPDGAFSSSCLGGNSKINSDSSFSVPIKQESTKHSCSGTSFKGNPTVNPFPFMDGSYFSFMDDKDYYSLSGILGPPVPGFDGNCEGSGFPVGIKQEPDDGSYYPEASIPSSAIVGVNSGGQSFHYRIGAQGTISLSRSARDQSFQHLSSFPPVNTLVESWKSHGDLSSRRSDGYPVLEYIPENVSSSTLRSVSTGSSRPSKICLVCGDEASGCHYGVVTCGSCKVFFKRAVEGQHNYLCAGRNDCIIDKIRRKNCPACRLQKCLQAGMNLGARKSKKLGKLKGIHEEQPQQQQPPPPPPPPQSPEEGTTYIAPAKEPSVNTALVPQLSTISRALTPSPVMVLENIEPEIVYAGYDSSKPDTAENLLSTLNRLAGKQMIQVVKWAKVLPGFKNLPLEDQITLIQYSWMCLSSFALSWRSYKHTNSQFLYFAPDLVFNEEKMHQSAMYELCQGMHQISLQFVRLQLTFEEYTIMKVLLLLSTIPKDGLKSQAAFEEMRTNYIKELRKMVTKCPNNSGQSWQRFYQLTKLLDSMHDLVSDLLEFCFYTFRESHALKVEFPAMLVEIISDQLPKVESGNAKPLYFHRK

[9] = biological target: T4, Progesterone receptor (Homo sapiens, UniProt P06401)
T4 sequence (P06401 whole entry): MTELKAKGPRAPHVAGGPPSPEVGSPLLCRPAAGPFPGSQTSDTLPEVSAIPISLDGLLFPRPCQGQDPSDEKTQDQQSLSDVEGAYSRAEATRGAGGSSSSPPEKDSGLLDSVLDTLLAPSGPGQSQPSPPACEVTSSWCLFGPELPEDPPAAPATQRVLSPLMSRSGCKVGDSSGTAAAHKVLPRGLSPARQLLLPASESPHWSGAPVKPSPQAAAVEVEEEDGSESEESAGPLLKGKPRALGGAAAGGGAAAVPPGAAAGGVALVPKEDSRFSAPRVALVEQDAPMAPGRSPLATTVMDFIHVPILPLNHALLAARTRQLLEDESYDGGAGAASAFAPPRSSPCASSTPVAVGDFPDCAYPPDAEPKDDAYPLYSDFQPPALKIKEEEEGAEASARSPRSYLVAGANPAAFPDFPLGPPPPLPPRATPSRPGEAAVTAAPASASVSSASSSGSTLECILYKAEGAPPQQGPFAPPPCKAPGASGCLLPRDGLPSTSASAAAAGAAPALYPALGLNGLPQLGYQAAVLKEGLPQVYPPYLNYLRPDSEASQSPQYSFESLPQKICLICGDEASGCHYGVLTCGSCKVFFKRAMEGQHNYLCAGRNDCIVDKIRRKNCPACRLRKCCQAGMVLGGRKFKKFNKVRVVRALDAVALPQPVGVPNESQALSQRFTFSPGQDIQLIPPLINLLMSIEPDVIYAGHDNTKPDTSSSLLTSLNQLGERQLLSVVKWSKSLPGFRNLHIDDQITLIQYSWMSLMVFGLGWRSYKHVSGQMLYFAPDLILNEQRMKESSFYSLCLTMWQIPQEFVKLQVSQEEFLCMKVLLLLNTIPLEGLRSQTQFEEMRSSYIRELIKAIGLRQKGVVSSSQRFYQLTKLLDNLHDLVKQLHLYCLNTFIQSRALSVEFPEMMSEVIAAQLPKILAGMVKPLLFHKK
Description: Binding affinity to progesterone receptor

[10] = biological target: T5, Estrogen receptor (Homo sapiens, UniProt P03372)
T5 sequence (P03372 whole entry): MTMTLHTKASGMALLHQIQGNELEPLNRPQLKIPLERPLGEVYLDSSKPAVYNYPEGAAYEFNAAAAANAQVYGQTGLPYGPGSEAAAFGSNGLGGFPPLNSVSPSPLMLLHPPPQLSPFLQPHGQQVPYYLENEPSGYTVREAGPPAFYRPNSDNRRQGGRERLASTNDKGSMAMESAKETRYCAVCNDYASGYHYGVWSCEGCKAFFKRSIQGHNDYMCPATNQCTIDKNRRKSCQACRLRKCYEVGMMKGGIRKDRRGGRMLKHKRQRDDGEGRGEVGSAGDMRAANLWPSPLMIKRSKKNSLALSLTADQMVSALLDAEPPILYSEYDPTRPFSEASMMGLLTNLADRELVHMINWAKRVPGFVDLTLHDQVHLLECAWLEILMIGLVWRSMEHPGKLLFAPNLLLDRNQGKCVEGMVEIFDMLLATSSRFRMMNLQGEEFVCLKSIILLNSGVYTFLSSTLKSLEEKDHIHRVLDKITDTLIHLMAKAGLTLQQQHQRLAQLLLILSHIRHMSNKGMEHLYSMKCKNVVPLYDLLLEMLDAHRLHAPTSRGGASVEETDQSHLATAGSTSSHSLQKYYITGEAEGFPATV
Description: Binding affinity to estrogen receptor

[11] = system: Rattus norvegicus; assay: Androgenic activity in orchidectomized rat at 2.0 mg/kg, sc measured as increase in ventral prostate weight to eugonadal level; type: functional, organism-based; design: dose 2 mg/kg; conditions: Prostate gland
[12] = system: Rattus norvegicus; assay: Anabolic activity in orchidectomized rat at 2.0 mg/kg, sc measured as increase in levator ani muscle weight to eugonadal level; type: functional, organism-based; design: dose 2 mg/kg

Oc1cc(C(F)(F)F)c2cc(N(CC3CC3)CC(F)(F)F)ccc2n1
Ki [1]: 0.0071 µM
EC50 [2]: 0.0028 µM
IC50 [3]: > 10 µM

O=c1cc(C(F)(F)F)c2cc(N(CC(F)(F)F)CC(F)(F)F)ccc2[nH]1
Activity [4]: 150%
Activity [5]: Active
Activity [6]: Active
Ki [7]: > 1 µM
Ki [8]: > 1 µM
Ki [9]: > 1 µM
Ki [10]: > 1 µM

C[C@]12CC[C@H]3[C@@H](CCC4=CC(=O)CC[C@@]43C)[C@@H]1CC[C@@H]2O
Activity [11]: Active
Activity [12]: Active
